Broadly, the pIC50 is the negative decadic logarithm of the IC50, by convention in mol/L.

Drawing on patent US10919902B2, “Hetero-halo inhibitors of histone deacetylase” (Alkermes, Inc., priority 2015, dated 2021), this text covers IC50 for 70 compounds.

This test deals with recombinant human HDACs (Homo sapiens). The experiment in a line: HDAC enzymatic assay. Conditions: 5 nM HDAC enzyme, 5 h pre-incubation, 17 h reaction at 25° C., isoform not given. Type of test: biochemical. As to the method: All recombinant human HDACs were purchased from BPS Bioscience. The substrate, FAM-TSRHK(AC)KL-CONH, was synthesized at NanoSyn. Final assay reactions contained 100 mM HEPES (pH 7.5), 50 mM KCl, 0.1% BSA, 0.01% Triton X-100, 1% DMSO, 1 uM substrate and 5 nM HDAC enzyme. Enzyme and compounds were pre-incubated at 25° C. for 5 hours and reactions were initiated by addition of substrate. 10 uL reactions were incubated for 17 hours at 25° C. and terminated by the addition of 40 uL of buffer containing 100 mM HEPES (pH 7.5), 0.1% BSA, 0.01% Triton X-100 and 0.05% SDS. Substrate and product peptides present in each sample were separated electrophoretically using the LabChip 3000 capillary electrophoresis instrument. Change in the relative fluorescence intensity of the substrate and product peaks reflects enzyme activity. Reaction progress was determined as the product to sum ratio (PSR):P/(S+P), where P is the peak height of the product peptide and S is the peak height of the substrate peptide. Reactions were performed in duplicate at 12 concentrations, (3× serial dilutions starting at 30 uM). IC50 values were calculated using a 4 Parameter Logistic Model.

Structures are written as SMILES. pIC50: −log10 of the molar value. Like-named read-outs stand apart in the source and are kept apart here. Bounds are passed on as bounds.

`Nc1ccc(-c2cccnc2)nc1NC(=O)C1CCN(Cc2ccccc2F)CC1` [Compound 378]: the negative-log IC50 (pIC50) (read-out: IC50) was below 5.30.
Still for that read-out and setting: under `Nc1ccc(-n2cccn2)nc1NC(=O)N1Cc2cc(F)cnc2C1` [Compound 185] stands 5.30 to 6.30; under `Nc1ccc(-n2cccn2)nc1NC(=O)C1CN(Cc2ccccc2)C1` [Compound 205], below 5.30.
Same read-out and setting: under `Nc1ccc(-c2ccco2)nc1NC(=O)N1CC2CN(C3COC3)CC2C1` (stereo not shown) [Compound 182] stands below 5.30.
Still for that read-out and setting: under `Nc1ccc(-c2ccco2)nc1NC(=O)C1CN(Cc2ccccc2)C1` [Compound 198] stands below 5.30; under `Nc1ccc(-c2cccnc2)nc1NC(=O)N1Cc2ccc(CO)cc2C1` [Compound 395], below 5.30.
`Nc1ccc(-c2ccc(F)cc2)nc1NC(=O)N1CC2CN(C3COC3)CC2C1` (stereo not shown) [Compound 203]: the pIC50 (read-out: IC50) is below 5.30.
The same measure, in the same setting: under `CN1CCC(C(=O)Nc2nn(-c3ccccc3)cc2N)CC1` [Compound 354] stands below 5.30; under `CN(C)[C@H]1[C@@H]2CN(C(=O)Nc3nc(-c4ccc(F)cc4)ccc3N)C[C@@H]21` [Compound 242], below 5.30; under `Nc1ccc(-c2ccc(F)cc2)nc1NC(=O)N1Cc2cc(C3CC3)cnc2C1` [Compound 255], 6.30 to 7.00.
The same measure, in the same setting: with `CN(C1CCOC1)C1CC2CN(C(=O)Nc3nc(-c4ccc(F)cc4)ccc3N)CC2C1` (stereo not shown) [Compound 237] the figure was below 5.30; with `Nc1ccc(-c2ccc(F)cc2)nc1NC(=O)N1C[C@@H]2[C@H](C1)[C@H]2NC1COC1` [Compound 267], below 5.30.
Same read-out and setting: under `CN1CCN(c2ccc3c(n2)CN(C(=O)Nc2nc(-c4ccc(F)cc4)ccc2N)C3)CC1` [Compound 391] stands 6.30 to 7.00; under `CC(O)c1ccc2c(c1)CN(C(=O)Nc1nc(-c3ccc(F)cc3)ccc1N)C2` (stereo not shown) [Compound 394], 6.30 to 7.00.
As to `Nc1ccc(-c2ccccc2)nc1NC(=O)N1CCn2cncc2C1` [Compound 212], the pIC50 (read-out: IC50) is below 5.30.
On the same count and under the same terms, with `CN(C)Cc1ccc2c(c1)CN(C(=O)Nc1nc(-c3ccc(F)cc3)ccc1N)C2` [Compound 371] the figure was 6.30 to 7.00.
On the same count and under the same terms, under `CN1CCc2sc(C(=O)Nc3nc(-c4ccco4)ccc3N)nc2C1` [Compound 163] stands 6.30 to 7.00.
Same read-out and setting: under `CC(=O)N1CCN(C(=O)Nc2nn(-c3ccccc3)cc2N)CC1` [Compound 360] stands below 5.30; under `Nc1cn(-c2ccccc2)nc1NC(=O)N1CC2CCCC2C1` (stereo not shown) [Compound 384], below 5.30.
Regarding `Nc1ccc(-c2ccc(F)cc2)nc1NC(=O)N1CC2CN(CC3CCOCC3)CC2C1` (stereo not shown) [Compound 235], where the note is “read-out: IC50”, the pIC50 is below 5.30.
The same measure, in the same setting: under `CN1CC(n2cc3c(n2)CN(C(=O)Nc2nc(-c4ccc(F)cc4)ccc2N)C3)C1` [Compound 247] stands 6.30 to 7.00; under `Nc1ccc(-c2ccccc2)nc1NC(=O)C1CCN(C2COC2)CC1` [Compound 381], below 5.30.
The same measure, in the same setting: with `COc1cccc(CN2CCCC3(CCN(C(=O)Nc4nn(-c5ccc(F)cc5)cc4N)C3)C2)c1` (stereo not shown) [Compound 124] the figure was below 5.30.
Turning to `COCc1cc2c(cn1)CN(C(=O)Nc1nc(-c3ccc(F)cc3)ccc1N)C2` [Compound 243], the pIC50 is 6.30 to 7.00.
On to `CC(C)Cc1cnc2c(c1)CN(C(=O)Nc1nc(-c3ccc(F)cc3)ccc1N)C2` [Compound 274], for which the pIC50 (read-out: IC50) is 6.30 to 7.00.
As for `Nc1ccc(-c2ccco2)nc1NC(=O)N1CC2CN(CCF)CC2C1` (stereo not shown) [Compound 174], the pIC50 (read-out: IC50) was below 5.30.
The same measure, in the same setting: with `Nc1ccc(-c2ccc(F)cc2)nc1NC(=O)N1Cc2ccncc2C1` [Compound 373] the figure was 6.30 to 7.00; with `Nc1ccc(-c2ccc(F)cc2)nc1NC(=O)N1Cc2cnc(C3CCOCC3)cc2C1` [Compound 240], 6.30 to 7.00; with `Nc1ccc(-c2ccccc2)nc1NC(=O)C1CCN(Cc2ccccc2F)CC1` [Compound 379], below 5.30.
For `COC[C@@H]1[C@H]2CN(C(=O)Nc3nc(-c4ccc(F)cc4)ccc3N)C[C@@H]12` [Compound 276], the pIC50 (read-out: IC50) is 5.30 to 6.30.
On the same count and under the same terms, under `Nc1ccc(-c2ccc(F)cc2)nc1NC(=O)C1CN(c2ccccn2)C1` [Compound 192] stands below 5.30; under `CN(C)Cc1ccc2c(c1)CN(C(=O)Nc1nc(-c3ccc(Cl)s3)ccc1N)C2` [Compound 401], below 5.30.
Same read-out and setting: with `CN1CCn2cc(C(=O)Nc3nc(-c4ccccc4)ccc3N)nc2C1` [Compound 206] the figure was 5.30 to 6.30; with `Nc1ccc(-c2ccc(F)cc2)nc1NC(=O)N1CC2CN(Cc3ccccc3F)CC2C1` (stereo not shown) [Compound 176], 5.30 to 6.30; with `CN(C1COC1)[C@H]1[C@@H]2CN(C(=O)Nc3nc(-c4ccc(F)cc4)ccc3N)C[C@@H]21` [Compound 262], below 5.30.
For the compound `CC(=O)N1CCN(CC(=O)Nc2nc(-c3ccccc3)ccc2N)CC1` [Compound 196], the pIC50 (read-out: IC50) was below 5.30.
On the same count and under the same terms, under `CN1CCN(c2cnc3c(c2)CN(C(=O)Nc2nc(-c4ccc(F)cc4)ccc2N)C3)CC1` [Compound 159] stands 6.30 to 7.00.
On the same count and under the same terms, with `Nc1ccc(-c2cccnc2)nc1NC(=O)N1CC2(CCNCC2)C1` [Compound 220] the figure was below 5.30; with `Nc1ccc(-c2ccc(F)cc2)nc1NC(=O)N1CCC(F)(F)C1` [Compound 364], 5.30 to 6.30; with `CN(C)Cc1cnc2c(c1)CN(C(=O)Nc1nc(-c3ccc(F)cc3)ccc1N)C2` [Compound 154], 6.30 to 7.00.
`CN1CCC(c2cc3c(cn2)CN(C(=O)Nc2nc(-c4ccc(F)cc4)ccc2N)C3)CC1` [Compound 149]: under “read-out: IC50”, the pIC50 is 6.30 to 7.00.
Same read-out and setting: with `CC(=O)N1CCC(C(=O)Nc2nc(-c3ccccc3)ccc2N)CC1` [Compound 380] the figure was below 5.30.
On the same count and under the same terms, with `Nc1ccc(-c2cccnc2)nc1NC(=O)c1cn2c(n1)CNCC2` [Compound 219] the figure was below 5.30; with `Nc1ccc(-c2cccnc2)nc1NC(=O)N1Cc2nccnc2C1` [Compound 214], 5.30 to 6.30; with `Nc1ccc(-c2ccc(F)cc2)nc1NC(=O)N1Cc2ccc(CO)cc2C1` [Compound 366], 6.30 to 7.00.
Still for that read-out and setting: with `Nc1ccc(-c2ccc(OC(F)F)cc2)nc1NC(=O)N1Cc2nccnc2C1` [Compound 228] the figure was 5.30 to 6.30; with `CN1CC(N2CC3CN(C(=O)Nc4nc(-c5ccc(F)cc5)ccc4N)CC3C2)C1` (stereo not shown) [Compound 152], 5.30 to 6.30; with `Nc1ccc(-c2ccc(F)cc2)nc1NC(=O)N1Cc2cncnc2C1` [Compound 277], 5.30 to 6.30.
For the compound `Nc1ccc(-c2ccc(F)cc2)nc1NC(=O)N1Cc2cc(CN3CCC3)cnc2C1` [Compound 272], the pIC50 (read-out: IC50) is 6.30 to 7.00.
The same measure, in the same setting: with `Nc1ccc(-c2ccc(F)cc2)nc1NC(=O)N1CCN(C(=O)C2C[C@H]2c2ccccc2)CC1` (stereo partly shown) [Compound 225] the figure was 5.30 to 6.30; with `Nc1ccc(-c2ccc(F)cc2)nc1NC(=O)N1Cc2cc(CN3CC(F)(F)C3)cnc2C1` [Compound 266], 5.30 to 6.30; with `Nc1ccc(-n2cccn2)nc1NC(=O)N1CC2CN(Cc3ccccc3F)CC2C1` (stereo not shown) [Compound 177], below 5.30.
Regarding `Nc1cn(-c2ccccc2)nc1NC(=O)N1CCNCC1` [Compound 357], the pIC50 (read-out: IC50) is below 5.30.
For `Nc1ccc(-c2ccc(F)cc2)nc1NC(=O)N1CC2CC(N3CCOCC3)CC2C1` (stereo not shown) [Compound 181], the pIC50 (read-out: IC50) was below 5.30.
Still for that read-out and setting: with `COCc1ccc2c(c1)CN(C(=O)Nc1nc(-c3ccc(F)cc3)ccc1N)C2` [Compound 396] the figure was 6.30 to 7.00; with `CN(C)Cc1cc2c(cn1)CN(C(=O)Nc1nc(-c3ccc(F)cc3)ccc1N)C2` [Compound 162], 6.30 to 7.00.
Turning to `CN1CC(n2ncc3c2CN(C(=O)Nc2nc(-c4ccc(F)cc4)ccc2N)C3)C1` [Compound 246], the negative-log IC50 (pIC50) (read-out: IC50) is below 5.30.
In the case of `Nc1ccc(-c2ccc(F)cc2)nc1NC(=O)N1CC2CN(C3CCOCC3)CC2C1` (stereo not shown) [Compound 236], the negative logarithm of the IC50 (pIC50) (read-out: IC50) is below 5.30.
The same measure, in the same setting: under `Nc1cn(-c2ccccc2)nc1NC(=O)N1CCC2(CCOCC2)C1` [Compound 407] stands below 5.30; under `CN1CCN(C2CC3CN(C(=O)Nc4nc(-c5ccc(F)cc5)ccc4N)CC3C2)CC1` (stereo not shown) [Compound 179], 5.30 to 6.30; under `COC1CCN(C(=O)Nc2nc(-c3ccc(F)cc3)ccc2N)C1` (stereo not shown) [Compound 388], 5.30 to 6.30.
Still for that read-out and setting: under `Nc1cn(-c2ccccc2)nc1NC(=O)N1Cc2ccc(CO)cc2C1` [Compound 350] stands 5.30 to 6.30; under `CN1CCN(c2cc3c(cn2)CN(C(=O)Nc2nc(-c4ccc(F)cc4)ccc2N)C3)CC1` [Compound 160], 6.30 to 7.00.
Still for that read-out and setting: under `Nc1ccc(-c2ccco2)nc1NC(=O)C1CN(c2ccccn2)C1` [Compound 193] stands below 5.30; under `CN1CCC(c2ccc3c(c2)CN(C(=O)Nc2nc(-c4ccc(F)cc4)ccc2N)C3)CC1` [Compound 387], 5.30 to 6.30.
With `Nc1ccc(-c2cccnc2)nc1NC(=O)N1CCCC1` [Compound 221], the pIC50 (read-out: IC50) is below 5.30.
Take `Cn1cc(CN2CCCC3(CCC(C(=O)Nc4nc(-c5ccc(F)cc5)ccc4N)C3)C2)cn1` (stereo not shown) [Compound 223]: the pIC50 (read-out: IC50) was below 5.30.
On the same count and under the same terms, with `Cc1cc(F)ccc1-c1ccc(N)c(NC(=O)N2Cc3cnc(CN(C)C)cc3C2)n1` [Compound 261] the figure was below 5.30.
Take `CN(C)Cc1cnc2c(c1)CN(C(=O)Nc1nc(-c3cccs3)ccc1N)C2` [Compound 145]: the pIC50 (read-out: IC50) is 6.30 to 7.00.
Still for that read-out and setting: with `COCC1CCN(C(=O)Nc2nc(-c3ccc(F)cc3)ccc2N)C1` (stereo not shown) [Compound 389] the figure was below 5.30.
